How the values were obtained:
db/db model mice [1] = assay: SPECT in vivo imaging; conditions: 11.1 MBq via the tail vein, acquisition up to 2 hours, FIG.3
Protocol: SPECT scans were performed using the nanoScan SPECT/CT scanner (Mediso Medical Imaging Systems, Hungary). […] Immediately afterward, the radiation signal was acquired in three-dimensional mode every 30 minutes for up to 2 hours. The energy window is set to 360-700 keV. After completing the SPECT scan, mice were injected with iodofol (Optiray 350; Guerbet) via the tail vein at a dose of 5 µL/g body weight, followed immediately by a 30-second CT scan (X-ray source: 50 kV/980 µA, 480 projections; mice were anesthetized with 1.5% (v/v) isoflurane during both the SPECT and CT scans).

[2] = system: diabetic nephropathy mice; assay: Ex vivo autoradiography of kidneys after tail vein injection; conditions: mouse
Description: The spontaneous type 2 diabetes mice model was developed using the db/db homozygous mice (BKS.Cg-Dock7m+/+LeprdbJ; JAX® Mice Strain Code 607) discovered by the Jackson Laboratory in the United States. […] Their pathogenesis is very similar to that of subjects with type 2 diabetes. The control group mice were either normal mice (m/m) or heterozygous mice (m/db).
Sixty minutes later, the mice were euthanized by dislocation, and their kidneys were removed and rapidly frozen in dry ice. 20 µm frozen sections were prepared using a cryostat (Reward, RWD Minux FS800). Frozen sections were held in contact with the developing plate (FUJIFILM; BAS-IP SR 2025E) for 2 hours, and images were read and quantitatively analyzed using an autoradiography scanner (CR-35 Bio; Elysia-Raytest).

db/db model mice [3] = assay: PET in vivo imaging; conditions: 15 MBq intravenous, 90 minutes acquisition, FIG.3
Protocol: PET scans were performed using an Inveon scanner (Siemens Medical Solutions Knoxville, TN, USA). Mice (m/m and db/db mice) were anesthetized with 1.5% (v/v) isoflurane and then fixed in the center of the FOV of a PET scanner. Immediately after intravenous injection of ^18F-KIDJI-004 (15 MBq), 90 minutes of radiation signals were acquired in three-dimensional mode. The energy window is 350-750 keV. After the PET scan was completed, mice were intravenously injected with iodofol (35%) (Optiray 350; Guerbet) at a dose of 5 µL/g body weight, followed immediately by a 30-second CT scan (X-ray source: 70 kV/88 mA, FOV: 60 mm). Mice were anesthetized with 1.5% (v/v) isoflurane during PET and CT scans.

Structure (SMILES) | accumulation in the kidneys of normal mice (db/db model mice [1]) | accumulation in the renal pelvis of the kidneys of db/db model mice (db/db model mice [1]) | accumulation in the renal pelvis of diabetic nephropathy mice [2] | accumulation in the kidneys of normal mice (db/db model mice [3]) | accumulation in the renal pelvis of the kidneys of db/db model mice (db/db model mice [3])
C[C@H]1Cc2c(nnn2-c2ncccn2)CN1C(=O)c1ccnc(C(F)(F)F)c1[18F] [^18F-KIDJI-003, (S)-(3-fluoro-2-(trifluoromethyl)pyridin-4-yl)(6-methyl-1-(pyrimidin-2-yl)-1,4,6,7-tetrahydro-5H-[1,2,3]triazolo[4,5-c]pyridin-5-yl) methyl ketone] |  |  | significant accumulation |  | 
O=C(c1ccc([131I])cc1)N1CCc2c(nnn2-c2ncccn2)C1 [^131I-KIDJI-007, (4-iodophenyl)(1-(pyrimidin-2-yl)-1,4,6,7-tetrahydro-5H-[1,2,3]triazolo[4,5-c]pyridin-5-yl) methyl ketone] | no significant accumulation | significantly accumulated |  |  | 
Cc1cc(C(=O)N2Cc3nnn(-c4ncccn4)c3C[C@@H]2C)cc([18F])n1 [^18F-KIDJI-004, (S)-(2-fluoro-6-methylpyridin-4-yl)(6-methyl-1-(pyrimidin-2-yl)-1,4,6,7-tetrahydro-5H-[1,2,3]triazolo[4,5-c]pyridin-5-yl) methyl ketone] |  |  |  | no significant accumulation | significantly accumulated

More lines, now with the values ahead:

accumulation in the kidneys of normal mice (db/db model mice [1]) | accumulation in the renal pelvis of the kidneys of db/db model mice (db/db model mice [1]) | accumulation in the renal pelvis of diabetic nephropathy mice [2] | accumulation in the kidneys of normal mice (db/db model mice [3]) | accumulation in the renal pelvis of the kidneys of db/db model mice (db/db model mice [3]) | Structure (SMILES)
no significant accumulation | significantly accumulated |  |  |  | O=C(c1ccc([131I])cc1F)N1CCc2c(nnn2-c2ncccn2)C1 [^131I-KIDJI-010, (2-fluoro-4-iodophenyl)(1-(pyrimidin-2-yl)-1,4,6,7-tetrahydro-5H-[1,2,3]triazolo[4,5-c]pyridin-5-yl) methyl ketone]
no significant accumulation | significantly accumulated |  |  |  | O=C(c1ccc([N+](=O)[O-])cc1[131I])N1CCc2c(nnn2-c2ncccn2)C1 [^131I-KIDJI-009, (2-iodo-4-nitro)(1-(pyrimidin-2-yl)-1,4,6,7-tetrahydro-5H-[1,2,3]triazolo[4,5-c]pyridin-5-yl) methyl ketone]
no significant accumulation | significantly accumulated |  |  |  | COc1ccc(C(=O)N2CCc3c(nnn3-c3ncccn3)C2)cc1[131I] [^131I-KIDJI-008, (3-iodo-4-methoxyphenyl)(1-(pyrimidin-2-yl)-1,4,6,7-tetrahydro-5H-[1,2,3]triazolo[4,5-c]pyridin-5-yl) methyl ketone]

Reference: patent EP4793276A1, “DRUG FOR DIAGNOSING DIABETIC NEPHROPATHY AND USE THEREOF” (Fudan University, priority 2023, dated 2025)
